Laboratory results reported in patent US6127387A, “Use of CD4-binding small molecules to inhibit immune responses” (Thomas Jefferson University, priority 1997, dated 2000).
“Also recorded” adds a separate entry of the source.

Legend:
[1] = molecular target: T1, CD4-MHC class II binding (Homo sapiens, UniProt P01730); assay: CD4-MHC class II cell adhesion (rosette formation) assay, CD4-transfected COS-7 cells with Raji B cells; assay type: cell-based; conditions: 100 μM compound, FIG. 2
T1 construct: expressed in transfected cells; host or cells: COS-7 cells (CD4, plasmid T4-pcDNA3); Raji B cells (endogenous MHC class II)
Excerpt: The capacity of a compound to inhibit the interaction of CD4 and class II MHC gene products can be determined by a cell rosetting assay. A cell line, such as Cos-7, Cos-1 or the like, can be transiently transfected with a plasmid bearing a human CD4 cDNA operably linked to a promoter. In an alternative embodiment a COS-1 cell line can be stably transformed with a human CD4 expression plasmid. The human CD4expressing cells and a human class II MHC expressing cell are mixed so that cellular rosettes are formed.
No inhibition of resetting was observed when CD8-pcDNA3 transfected cells were rosetted with Raji cells, which also express MHC, class I products.
The sequence of human CD4 CDNA is given in Maddon, P. J. et al., 1985, CELL 42:93-104, which sequence is hereby incorporated by reference in its entirety. Maddon et al. refers to human CD4 as "T4." The plasmid T4-pMV7, containing the human CD4 cDNA is available from the AIDS Research and Reference Reagent Program, Division of AIDS, NIAID, NIH (McKesson BioServices, Rockville, Md.). The 3.0 Kb Eco R1 fragment of T4-pMV7 contains the 1.5 Kb CD4 CDNA.
For transfection of COS-7 cells, a CD4-expression plasmid T4-pcDNA3, was constructed by subcloning the 3.0 Kb Eco R1 fragment of T4-pMV7 into the EcoRI site of the mammalian expression vector pcDNA3 (INVITROGEN). Transfection was accomplished by DOSPER liposomal transfection reagent (BOEHRINGER MANNHEIM), by the following modification of the manufacturer's protocol.
9. Determine the CD4 expression levels as a measure of transfection efficiency by flow cytometry analysis. Usually between 30% and 40% of transfected COS-7 cells expressed human CD4 as defined by immunofluorescence binding assay for the interaction between CD4 and class II MHC proteins in the presence of organic chemicals by rosette formation: Raji B cells 10^7 in 1 ml of RPMI medium with 10% FCS and […] were added to each well 48 h post-transfection and incubated with transfected COS-7 cells in the presence of the test compound (individually 200 μM) at 37° C. for 1 h. Following incubation, wells were washed five or six times by dropping RPMI medium with FCS into wells. Rosette formation between Raji cells and transfected COS-7 cells was scored microscopically at 100-fold magnification. The number of rosette containing more than five Raji cells was counted in 10 random optical fields in each individual well; 300-400 rosettes per well were counted as the positive control for rosette formation without any inhibition in the absence of any chemicals. The inhibition activity for rosette formation for each chemical was determined by the ratio of the number of rosettes obtained in the presence of this chemical to the number of rosettes in the positive control. […]

[2] = system: SJL mice; assay: EAE inhibition in vivo (PLP-induced acute EAE); set-up: species or system mouse; conditions: single i.v. injection of 50 μg in 0.25% DMSO on day 12 post-challenge, FIG. 3
Procedure: The lead organic compounds were tested for in vivo immunosuppressive activity in murine EAE, an animal model for multiple sclerosis. An acute form of EAE was induced in SJL mice by subcutaneous challenge with proteolipid (PLP) epitope, MacRae, B. L., et al., 1995, J. Neuroimmunol. 60:17-28, (100 μg in 0.15 ml PBS emulsified in an equal volume of Complete Freund's Adjuvant) on days 0 and 7. Pertussis (Michigan Biological Products, Lansing Mich.) was administered 30 min after antigen injection on day 7 (0.25 ml containing 5×10^9 inactivated organisms, i.v.). Clinical symptoms of EAE were evaluated based on a 0-5 scale of ascending severity of symptoms, as previously described. Korngold, R., et al., 1986, Immunogenetics 24:309-315. The organic compounds were administered by a single i.v. injection of 50 μg of the compound in 0.25% DMSO (the compounds were not soluble in water alone) on day 12 post-challenge.

[3] = system: (B6×CBA)F1 irradiated recipient mice; assay: CD4+ T cell-mediated graft-versus-host disease lethality; assay type: in vivo, mouse; conditions: 100 μg i.v. in 0.5% DMSO on days 0, 3 and 6 post-transplant, vs untreated control, p<0.001, FIG. 5
Procedure: The lead organic compound TJU103 (N-(3-indoylmethylene)-isonicotinic hydrazone) was tested for in vivo inhibition of CD4^+ T cell-mediatedgraft-versus-host disease lethality. (B6×CBA)F1 irradiated recipient mice were transplanted by i.v. injection with haploidentical (B6×DBA/2)F1 T cell-depleted bone marrow (ATBM) and CD4^+ T cells (3×10^6), which induces lethal graft-versus-host disease (GVHD). TJU103 was administered by i.v. injections at a dose of 100 μg in 0.5% DMSO on days 0, 3, and 6 post-transplant. […] Median survival times were calculated and statistical comparisons were performed by Wilcoxin signed-rank non-parametric analysis using SYSTAT 5.2 software.

[4] = system: C57B1/6 mice challenged with C57B1/6.H-2^bm12 tail skin; assay: Class II MHC disparate skin allograft rejection (CD4+ T cell-mediated B6 anti-bm12 response); assay type: in vivo, mouse; conditions: TJU103 single i.v. 100 μg in 0.5% DMSO 3 hours before transplantation, vs 0.5% DMSO diluent, FIG. 6
Procedure: The lead organic compounds were tested for inhibition of CD4^+ T cell-mediated skin allograft rejection using the MHC class II disparate model of C57B1/6 mice challenged with C57B1/6.H-2^bm12 tail skin. Following a modified method of Bailey and Usama (1960, Transplant. Bull. 7:424-425), donor tail skin grafts (0.25 cm×0.5 cm) were transplanted onto the ventral side of the tail of the recipient mouse, covered with a glass tube and held into position with short strips of adhesive tape for 2 days. The tubes were removed and the grafts monitored every other day for up to 80 days. […] Syngeneic grafts were also transplanted as negative controls for rejection. Median survival times (MST) were calculated and statistical comparisons were performed by Wilcoxin signed-rank non-parametric analysis utilizing SYSTAT 5.2 software.
The compounds were injected 3 hours before transplantation at a dosage of 50 μg in 0.2 ml 0.25% DMSO. […] Each group contained 4 animals except the TJU102 group, which contained 5 animals.
The lead organic compound TJU103 (N-(3-indoylmethylene)-isonicotinic hydrazone) was tested for inhibition of CD4^+ T cell-mediated skin allograft rejection using the CD4^+ T cell-mediated B6 anti-bm12 response. […] Median survival times were calculated and statistical comparisons were performed by Wilcoxin signed-rank non-parametric analysis using SYSTAT 5.2 software.

[5] = system: B6 recipient mice with bm1 tail skin allografts; assay: Class I MHC disparate skin allograft survival (CD8+ T cell-mediated B6 anti-bm1 response); assay type: in vivo, mouse; conditions: TJU103 single i.v. 100 μg in 0.5% DMSO 3 hours before transplantation, vs 0.5% DMSO diluent, FIG. 7
Procedure: The lead organic compound TJU103 (N-(3-indoylmethylene)-isonicotinic hydrazone) was tested for inhibition of CD8^+ T-cell mediated allograft survival using the CD8^+ T cell-mediated B6 anti-bm1 response. A single i.v. injection of 100 μg of TJU103 in 0.5% DMSO was administered into B6 recipient mice 3 hours before transplantation of MHC class I-disparate bm1 tail skin allografts following a modified method of Bailey and Usama (1960, Transplant Bull. 7:424 425). A group of mice were treated with anti-CD8 monoclonal antibody (2.43) as a […]. Median survival times were calculated and statistical comparisons were performed by Wilcoxin signed-rank non-parametric analysis using SYSTAT 5.2 software.

| inhibition at 100 µM [1] [%] | Structure (SMILES) | severity of EAE [2] | median survival time of GVHD recipients [3] | survival time of bm12 allografts [4] | survival time of bm1 allografts [5] |
| --- | --- | --- | --- | --- | --- |
| > 40 | O=C(Nc1ccc(Cl)cc1Cl)c1nc(Cn2cncn2)n[nH]1 [TJU104, N-(2,4-dichlorophenyl)-3-(1,2,4-triazol-1-ylmethyl)-1,2,4-triazole-5-carboxamide] | statistically significant effect | – | – | – |
| > 40 | COc1ccc(-c2cn3c(n2)sc2ccccc23)cc1 [TJU102] | – | – | – | – |
| > 40 | Cn1c(CSCc2nc(-c3ccc(Cl)cc3)cs2)nnc1SCc1ccc(Cl)cc1 [TJU101, 5-(4-chlorobenzylthio)-3-{[(4-chlorophenyl)-2-thiazolyl]methylthiomethyl}-4-methyl-1,2,4-triazole] | – | – | – | – |

| Structure (SMILES) | inhibition at 100 µM [1] [%] | severity of EAE [2] | median survival time of GVHD recipients [3] | survival time of bm12 allografts [4] | survival time of bm1 allografts [5] |
| --- | --- | --- | --- | --- | --- |
| O=C(NN=Cc1c[nH]c2ccccc12)c1ccncc1 [TJU103, N-(3-indoylmethylene)-isonicotinic hydrazone] | > 40 | statistically significant effect | significantly prolongs the median survival time; also recorded: effective in prolonging median survival time | prolongs survival time of the allografts; also recorded: effective in prolonging the median survival time of the allografts | does not prolong survival time of the allografts |
